Consider 1 substance from patent US10617736B2, “Method for modulating insulin-independent glucose transport using teneurin C-terminal associated peptide (TCAP)” (priority 2014, dated 2020).

Read-outs that look alike come from different tables or passages of the source. Ends that are not written are not given here.

What all share (format): in vivo, rat
One series has as its system male Wistar rats. Nature of the series: Haematology assays in normal Wistar rats. As to the method: (§1) Whole blood samples were collected into plastic microcentrifuge tubes with EDTA-coated capillary tubes. A minimum sample volume of 20 μL was required for the analyses by the Toronto Centre for Phenogenomics (Mount Sinai Hospital, Toronto) using the Hemavet 950Fs Hematology Analyzer. From the whole blood samples, serum was separated from the cells and fibrin by centrifuging the collection tubes for five minutes at 7000 g at 25° C. Afterwards, immediately following collection of serum, the samples were stored and maintained at a freezing temperature of −80° C.
(§2) Haematology assays were performed on physiological normal rat serum and from Type II Diabetic GK rats obtained at the end of the in vivo studies noted herein in which TCAP-1 was administered to the normal rats and plasma glucose levels were monitored over the course of 1-2 weeks. […] Results are illustrated in FIGS. 6A to 6L.

Series [1] can be described thus: Uptake and clearance of TCAP-1 in plasma after IV or SC injection (TCAP ELISA). To be noted: for half-life: rat, in vivo. As to the method:
Male Wistar rats weighing 400-450 g were obtained from Charles River Laboratories (Montreal, Canada). Rats were singly-housed in standard Plexiglas shoebox cages under standard laboratory conditions, (12 h light:dark cycle, lights on at 0700) with food and water available ad libitum. Testing took place between 0900 and 1200 hours. Rats were given one week to acclimatize to the laboratory before surgery. Rats were anesthetized with isoflurane (2-3% in 100% O2) and a catheter was implanted into the jugular vein.
The K37 biotinylated TCAP was diluted into 200 ul physiological saline to contain 10.5 ug for 5 nM/kg dose and 52.5 ug for 25 nM/kg dose. The rats weighed 400-450 g. 200 ul of peptide containing solution was delivered through the cannula, different syringe containing saline was connected and 200 ul of saline was delivered to push the peptide into the bloodstream. The third syringe containing the heparin solution was used to fill the line with the lock, 150-200 ul. After 5 min, the lock solution was aspirated into the syringe, and also about 150 ul of the blood were aspirated and disposed off in case of the local contamination with high peptide concentrations. 200 ul of the blood was sampled in a fresh syringe, line flushed with saline first (200 ul) and heparin saline next (150-200 ul).
(§3) Rats were gently restrained, cannula clamped and unplugged, 1 ml syringe with blunt needle attached to the end of the polyethylene 50 line and the lock solution containing heparin 50-100 U/ml was removed. The line was clamped and a new syringe with a blunt needle attached for withdrawing about 200 ul blood. The line was clamped and syringe removed to recover the blood. This blood sample was used to determine a baseline level of activity. All blood samples were incubated at a room temperature for 10-20 min and centrifuged at 3000 rpm for 5 min to recover the serum. The serum was frozen on dry ice and kept at −80° C. until the assay.
as §3, with “K37 TCAP was biotin labeled according to the biotinylation method above. Rats” for “Rats”
For IV administration, rats were gently restrained during the injection procedure. The IV cannula was unplugged and the lock solution (150-200 μl of 50-100 U/ml of heparin, Sigma Scientific) was removed. To obtain a baseline level of activity, 200 μl of blood was withdrawn prior to injection. 200 μl of TCAP-containing solution was delivered through the cannula, followed by 200 μl of saline to push the TCAP solution through the cannula. 150-200 μl of lock solution was injected to fill the catheter. For subcutaneous (SC) administration, rats were gently restrained and injected under the skin with 200 μl of TCAP-1-containing solution with a 23 gauge needle
Blood samples were obtained from the jugular catheter. Rats were gently restrained, and the IV cannula was unplugged. The lock solution was aspirated along with 150 μl of blood. This mixture was discarded in case of local contamination with high peptide concentrations. A sample of200 μl of blood was obtained in a fresh syringe. The catheter was then flushed with 200 μl of saline and then filled with 150-200 μl of lock solution. Lateral tail vein blood samples were obtained from lightly restrained rats whereby 200 μl of blood was obtained using a 23-gauge needle. A final bleed was achieved via cardiac puncture. […]
A general note: An ELISA detects its analyte on a solid surface through an enzyme-linked reagent.

For the next series, the system named is male GK Wistar rats. Nature of the series: Haematology assays in Goto-Kakizaki rats. The method, then: as §1, §2

With “QQLLGTGRVQGYDGYFVLSVEQYLELSDSANNIHFMRQSEI-NH2 (C-terminus assumed) [TCAP-1]”, the haemoglobin concentrations entry in the series on male Wistar rats (Wistar rats, 1 or 10 nmole/kg (FIG. 6A)) is given as “No significant results were observed”; in the series with male GK Wistar rats (10 nmole/kg (FIG. 6G)), “No significant results were observed”. Besides, the hematocrit counts entry in the series on male Wistar rats (Wistar rats, 1 or 10 nmole/kg (FIG. 6B)) is given as “No significant results were observed”; with male GK Wistar rats (10 nmole/kg (FIG. 6H)) it was “No significant results were observed”. Moreover, the platelet counts entry was “No significant results were observed” in the series with male Wistar rats (Wistar rats, 1 or 10 nmole/kg (FIG. 6C)) and “No significant results were observed” with male GK Wistar rats (10 nmole/kg (FIG. 6I)). For the same substance, the “red blood cell counts” value with male Wistar rats (Wistar rats, 1 or 10 nmole/kg (FIG. 6D)) is “No significant results were observed”; with male GK Wistar rats (10 nmole/kg (FIG. 6J)), “No significant results were observed”. For the same substance, the “levels of white blood cells, neutrophils or lymphocytes” value with male Wistar rats (Wistar rats, 1 or 10 nmole/kg (FIG. 6E)) is “No significant results were observed”; in the series on male GK Wistar rats (10 nmole/kg (FIG. 6K)), “No significant results were observed”. Further, the “monocytes, basophils or eosinophils” value in the series with male Wistar rats (Wistar rats, 1 or 10 nmole/kg (FIG. 6F)) is reported as “No significant results were observed”; in the series with male GK Wistar rats (10 nmole/kg (FIG. 6L)), “No significant results were observed”. Also, the “clot formation in blood samples” value with male Wistar rats (observation on collected blood samples) is “clots formed more frequently in the blood samples of TCAP-1 treated rats”. In series [1] (IV administered, rat plasma), the “time of peak in plasma” value is listed as no more than 1 min. Further, the “time until cleared from plasma” value in series [1] (IV-treated animals) is given as “about 100 min”; in series [1] (SC treated animals, highest dose of 125 ng/kg) it was “about 170 min”. In addition, the “time to 50% loss from plasma” value in series [1] (SC administered, rat plasma) is “about 90 min”. The half-life in series [1] (iv, highest dose, read-out: plasma clearance half-life) was 16 ± 4 min; in series [1] (iv, lowest dose, read-out: plasma clearance half-life) it was 4 ± 1 min; in series [1] (iv, mid dose, read-out: plasma clearance half-life) it was 7 ± 2 min; in series [1] (sc, highest dose, read-out: clearance time (plasma clearance half-life)), 36 ± 20 min; in series [1] (sc, lowest dose, read-out: clearance time (plasma clearance half-life)), 40 ± 4 min; in series [1] (sc, mid dose, read-out: clearance time (plasma clearance half-life)) it was 50 ± 11 min. The “white blood cells, neutrophils and lymphocytes, trend” value in the series with male GK Wistar rats (results called variable and inconclusive) was “appears to be a decrease in white blood cells, neutrophils and lymphocytes”.

A word on the half-life: it is how long it takes for the measured level to halve.
